Patent US7795208B2, “Methods of using deacetylase inhibitors to promote cell differentiation and regeneration” (The Salk Institute for Biological Study, priority 2001, dated 2010)

Columns and labels:
[1] = test system: human skeletal myocytes (HSkM); assay: MHC-positive myotube formation in primary human skeletal myocytes; assay type: cell-based; settings: HSkM treated 24 hours in GM, then DM without TSA 48 hours
Description: Cellular extracts were obtained and analyzed by Western blotting for the presence of MHC, tubulin, and myogenin. […] Nuclei were stained with DAPI. […] Additionally, RT-PCR was performed on RNA obtained form cells treated with TSA (T) or without (-) TSA with specific primers for either MCK or GAPDH. […] Nuclei were stained with DAPI. […] Cells were grown in GM and treated with TSA for 24 hours, then switched to DM in the absence of TSA for additional 48 hours. Nuclei were stained with DAPI. Additionally, a Western blot analysis of MHC and tubulin expression in either untreated or TSA-treated (T) HSkM is shown. […] Nuclei were stained with DAPI. Mouse muscle myoblast C2C12 cells (obtained from the American Type Culture Collection, ATCC CRL-1772) and CC42 cells (from Dr. Kenneth Walsh, Tufts University School of Medicine) were cultured in DMEM supplemented with 20% fetal bovine serum, 2 mM glutamine and 1× kanamycin (growth medium, GM). Cellular differentiation was induced with DMEM supplemented with 2% horse serum and 1× insulin, transferring, selenium (Life Technologies). Human skeletal myocytes (CC-2561) were purchased from Clonetics. […] Following transfections, luciferase activity was determined using the Dual-Luciferase reporter assay system (Promega) on a microtiter luminescence detection system (MLX, Dynex). […]

[2] = test system: cyclinA-luc; assay: Integrated cyclinA-luc reporter in stable C2C12 clone; assay type: cell-based, mouse; settings: TSA treatment in GM
Description: FIGS. 2A-D are graphs showing DI activation muscle-specific transcription in skeletal muscle cells. […] Luciferase activity was measured in non-treated cells cultured in either GM (GM) or DM (DM). Alternatively, C2C12 were exposed to sodium butyrate for 24 hours in GM and then switched to DM without sodium butyrate (Butyr/GM>DM) or treated with sodium butyrate when cultured in DM (Butyr/DM) before being analyzed for luciferase activity. […] Luciferase assays were performed after culturing the cells for 48 hours in DM without sodium butyrate. […] The reporter activity was also analyzed in cells differentiated in the absence of TSA (DM)
Mouse muscle myoblast C2C12 cells (obtained from the American Type Culture Collection, ATCC CRL-1772) and CC42 cells (from Dr. Kenneth Walsh, Tufts University School of Medicine) were cultured in DMEM supplemented with 20% fetal bovine serum, 2 mM glutamine and 1× kanamycin (growth medium, GM). Cellular differentiation was induced with DMEM supplemented with 2% horse serum and 1× insulin, transferring, selenium (Life Technologies). Human skeletal myocytes (CC-2561) were purchased from Clonetics. […] Following transfections, luciferase activity was determined using the Dual-Luciferase reporter assay system (Promega) on a microtiter luminescence detection system (MLX, Dynex). […]

CC(/C=C/C(=O)NO)=C\[C@@H](C)C(=O)c1ccc(N(C)C)cc1 [TSA, trichostatin A]
formation of MHC-positive myotubes and MHC expression levels [1]: greatly enhanced the formation of MHC-positive myotubes and increased the MHC expression levels
serum-dependent transcription of integrated cyclinA-luc [2]: not stimulated
